Data from patent publication US10004701B2, “Methods and compositions for treating infection” (UNIVERSITY OF ROCHESTER, priority 2012, dated 2018).
Counter-ions that a name gives are not always drawn. Like-named read-outs stand apart in the source and are kept apart here.

Assays:
Test in all cases: AK assay 384-well format, Prestwick library screening
P. aeruginosa = type: cell-based, Pseudomonas aeruginosa; details: 50 μM final drug concentration; for fold induction at 50 µM: Pseudomonas aeruginosa, 3 h
[1] = tested on: A. baumannii strain 98-37-09; type: cell-based, Acinetobacter baumannii; details: 50 μM final drug concentration; for fold induction at 50 µM: Acinetobacter baumannii, 983709, 3 h
E. cloacae = type: cell-based, Enterobacter cloacae; details: 50 μM final drug concentration; for fold induction at 50 µM: Enterobacter cloacae, 3 h
E. faecium = type: cell-based, Enterococcus faecium; details: 50 μM final drug concentration; for fold induction at 50 µM: Enterococcus faecium, 3 h
K. pneumoniae = type: cell-based, Klebsiella pneumoniae; details: 50 μM final drug concentration; for fold induction at 50 µM: Klebsiella pneumoniae, 3 h
E. coli = type: cell-based, Escherichia coli; details: 50 μM final drug concentration; for fold induction at 50 µM: Escherichia coli, 3 h
[2] = tested on: S. aureus strain USA300-0114; type: cell-based, Staphylococcus aureus; details: 50 μM final drug concentration; for fold induction at 50 µM: Staphylococcus aureus, USA300, 3 h
[3] = 384-well format, cutoff for positive-scoring molecules 3-fold increase, read-out: AK-based Prestwick Library Screening Results, P. aeruginosa (increase in extracellular AK activity)
[4] = 384-well format, cutoff for positive-scoring molecules 3-fold increase, read-out: AK-based Prestwick Library Screening Results, A. baumannii (increase in extracellular AK activity)
[5] = 384-well format, cutoff for positive-scoring molecules 3-fold increase, read-out: AK-based Prestwick Library Screening Results, E. cloacae (increase in extracellular AK activity)
[6] = 384-well format, cutoff for positive-scoring molecules 3-fold increase, read-out: AK-based Prestwick Library Screening Results, E. faecium (increase in extracellular AK activity)
[7] = 384-well format, cutoff for positive-scoring molecules 3-fold increase, read-out: AK-based Prestwick Library Screening Results, K. pneumoniae (increase in extracellular AK activity)
[8] = 384-well format, cutoff for positive-scoring molecules 3-fold increase, read-out: AK-based Prestwick Library Screening Results, E. coli (increase in extracellular AK activity)
[9] = 384-well format, cutoff for positive-scoring molecules 3-fold increase, read-out: AK-based Prestwick Library Screening Results, S. aureus (increase in extracellular AK activity)
[10] = planktonic, cutoff for positive 3-fold increase

Which fold induction at 50 µM (P. aeruginosa; [3]) does the source give for `Cn1c(=O)c2c(ncn2CCO)n(C)c1=O` [Etofylline] here?
The fold induction at 50 µM was 0.7.

What about the fold induction at 50 µM [1, 4] of the same compound?
The fold induction at 50 µM was 0.8.

What about the fold induction at 50 µM (E. cloacae; [5]) of the same compound?
The fold induction at 50 µM was 0.9.

And the fold induction at 50 µM (E. faecium; [6])?
Its fold induction at 50 µM is 1.

What about the fold induction at 50 µM (K. pneumoniae; [7]) of the same compound?
The fold induction at 50 µM was 0.6.

What about the fold induction at 50 µM (E. coli; [8]) of the same compound?
Its fold induction at 50 µM is 0.8.

And the fold induction at 50 µM [2, 9]?
The fold induction at 50 µM was 0.8.

For Thioproperazine dimesylate, which “AK-based Prestwick Library Screening Results: P. aeruginosa (increase in extracellular AK activity)” value (P. aeruginosa; planktonic P. aeruginosa, 384-well, cutoff for positive-scoring molecules 3-fold increase) is on record?
The value was 1.1.

And the “AK-based Prestwick Library Screening Results: A. baumannii (increase in extracellular AK activity)” value ([1]; planktonic A. baumannii, 384-well, cutoff for positive-scoring molecules 3-fold increase)?
The value was 1.7.

What about the “AK-based Prestwick Library Screening Results: E. cloacae (increase in extracellular AK activity)” value (E. cloacae; planktonic E. cloacae, 384-well, cutoff for positive-scoring molecules 3-fold increase) of the same compound?
Its value is 1.3.

And the “AK-based Prestwick Library Screening Results: E. faecium (increase in extracellular AK activity)” value (E. faecium; planktonic E. faecium, 384-well, cutoff for positive-scoring molecules 3-fold increase)?
Its value is 1.0.

What about the “AK-based Prestwick Library Screening Results: K. pneumoniae (increase in extracellular AK activity)” value (K. pneumoniae; planktonic K. pneumoniae, 384-well, cutoff for positive-scoring molecules 3-fold increase) of the same compound?
The value was 1.1.

And the “AK-based Prestwick Library Screening Results: E. coli (increase in extracellular AK activity)” value (E. coli; planktonic E. coli, 384-well, cutoff for positive-scoring molecules 3-fold increase)?
Its value is 1.5.

And the “AK-based Prestwick Library Screening Results: S. aureus (increase in extracellular AK activity)” value ([2]; planktonic S. aureus, 384-well, cutoff for positive-scoring molecules 3-fold increase)?
The value was 1.0.

Which results are given for `CN1CCCCC1CCN1c2ccccc2Sc2ccc([S+](C)[O-])cc21` (centres unmarked) [Mesoridazine besylate]?
fold induction at 50 µM (P. aeruginosa; planktonic, cutoff for positive 3-fold increase, read-out: AK-based Prestwick Library Screening Results, P. aeruginosa (fold increase in extracellular AK activity)): 1.2; fold induction at 50 µM ([1]; planktonic, cutoff for positive 3-fold increase, read-out: AK-based Prestwick Library Screening Results, A. baumannii (fold increase in extracellular AK activity)): 1; fold induction at 50 µM (E. cloacae; planktonic, cutoff for positive 3-fold increase, read-out: AK-based Prestwick Library Screening Results, E. cloacae (fold increase in extracellular AK activity)): 1.3; fold induction at 50 µM (E. faecium; planktonic, cutoff for positive 3-fold increase, read-out: AK-based Prestwick Library Screening Results, E. faecium (fold increase in extracellular AK activity)): 1.1; fold induction at 50 µM (K. pneumoniae; planktonic, cutoff for positive 3-fold increase, read-out: AK-based Prestwick Library Screening Results, K. pneumoniae (fold increase in extracellular AK activity)): 1; fold induction at 50 µM (E. coli; planktonic, cutoff for positive 3-fold increase, read-out: AK-based Prestwick Library Screening Results, E. coli (fold increase in extracellular AK activity)): 1.1; fold induction at 50 µM ([2]; planktonic, cutoff for positive 3-fold increase, read-out: AK-based Prestwick Library Screening Results, S. aureus (fold increase in extracellular AK activity)): 1.3

Which results are given for `COc1c(O)cc2c(c1O)[C@@H]1O[C@H](CO)[C@@H](O)[C@H](O)[C@H]1OC2=O` [Bergenin monohydrate]?
fold induction at 50 µM (P. aeruginosa; planktonic, cutoff for positive-scoring molecules 3-fold increase, read-out: AK-based Prestwick Library Screening Results, P. aeruginosa (fold increase in extracellular AK activity)): 0.8; fold induction at 50 µM ([1]; planktonic, cutoff for positive-scoring molecules 3-fold increase, read-out: AK-based Prestwick Library Screening Results, A. baumannii (fold increase in extracellular AK activity)): 0.9; fold induction at 50 µM (E. cloacae; planktonic, cutoff for positive-scoring molecules 3-fold increase, read-out: AK-based Prestwick Library Screening Results, E. cloacae (fold increase in extracellular AK activity)): 1.1; fold induction at 50 µM (E. faecium; planktonic, cutoff for positive-scoring molecules 3-fold increase, read-out: AK-based Prestwick Library Screening Results, E. faecium (fold increase in extracellular AK activity)): 0.9; fold induction at 50 µM (K. pneumoniae; planktonic, cutoff for positive-scoring molecules 3-fold increase, read-out: AK-based Prestwick Library Screening Results, K. pneumoniae (fold increase in extracellular AK activity)): 0.8; fold induction at 50 µM (E. coli; planktonic, cutoff for positive-scoring molecules 3-fold increase, read-out: AK-based Prestwick Library Screening Results, E. coli (fold increase in extracellular AK activity)): 0.7; fold induction at 50 µM ([2]; planktonic, cutoff for positive-scoring molecules 3-fold increase, read-out: AK-based Prestwick Library Screening Results, S. aureus (fold increase in extracellular AK activity)): 0.9

Which “AK-based Prestwick Library Screening Results, P. aeruginosa (fold increase in extracellular AK activity)” value (P. aeruginosa; [10]) does the source give for `C=C1c2c(Cl)ccc(O)c2C(=O)C2=C(O)[C@]3(O)C(=O)C(C(N)=O)=C(O)[C@@H](N(C)C)[C@@H]3[C@@H](O)[C@H]12.O=C(O)c1cc(S(=O)(=O)O)ccc1O` [Meclocycline sulfosalicylate] here?
The value was 0.5.

And the “AK-based Prestwick Library Screening Results, A. baumannii (fold increase in extracellular AK activity)” value [1, 10]?
Its value is 3.2.

What about the “AK-based Prestwick Library Screening Results, E. cloacae (fold increase in extracellular AK activity)” value (E. cloacae; [10]) of the same compound?
The value was 2.1.

What about the “AK-based Prestwick Library Screening Results, E. faecium (fold increase in extracellular AK activity)” value (E. faecium; [10]) of the same compound?
Its value is 1.0.

What about the “AK-based Prestwick Library Screening Results, K. pneumoniae (fold increase in extracellular AK activity)” value (K. pneumoniae; [10]) of the same compound?
The value was 0.3.

And the “AK-based Prestwick Library Screening Results, E. coli (fold increase in extracellular AK activity)” value (E. coli; [10])?
The value was 0.8.

And the “AK-based Prestwick Library Screening Results, S. aureus (fold increase in extracellular AK activity)” value [2, 10]?
Its value is 4.3.

How did the fold induction at 50 µM (P. aeruginosa; planktonic P. aeruginosa, cutoff for positive-scoring molecules 3-fold increase, read-out: AK-based Prestwick Library Screening Results, P. aeruginosa (increase in extracellular AK activity)) turn out when `CN(C)CCC=C1c2ccccc2C=Cc2ccccc21` [Cyclobenzaprine hydrochloride] was run?
Its fold induction at 50 µM is 1.1.

And the fold induction at 50 µM ([1]; planktonic A. baumannii, cutoff for positive-scoring molecules 3-fold increase, read-out: AK-based Prestwick Library Screening Results, A. baumannii (increase in extracellular AK activity))?
The fold induction at 50 µM was 1.2.

What about the fold induction at 50 µM (E. cloacae; planktonic E. cloacae, cutoff for positive-scoring molecules 3-fold increase, read-out: AK-based Prestwick Library Screening Results, E. cloacae (increase in extracellular AK activity)) of the same compound?
The fold induction at 50 µM was 1.2.

And the fold induction at 50 µM (E. faecium; planktonic E. faecium, cutoff for positive-scoring molecules 3-fold increase, read-out: AK-based Prestwick Library Screening Results, E. faecium (increase in extracellular AK activity))?
Its fold induction at 50 µM is 1.

And the fold induction at 50 µM (K. pneumoniae; planktonic K. pneumoniae, cutoff for positive-scoring molecules 3-fold increase, read-out: AK-based Prestwick Library Screening Results, K. pneumoniae (increase in extracellular AK activity))?
Its fold induction at 50 µM is 0.9.

And the fold induction at 50 µM (E. coli; planktonic E. coli, cutoff for positive-scoring molecules 3-fold increase, read-out: AK-based Prestwick Library Screening Results, E. coli (increase in extracellular AK activity))?
Its fold induction at 50 µM is 1.3.

What about the fold induction at 50 µM ([2]; planktonic S. aureus, cutoff for positive-scoring molecules 3-fold increase, read-out: AK-based Prestwick Library Screening Results, S. aureus (increase in extracellular AK activity)) of the same compound?
Its fold induction at 50 µM is 1.

Which fold induction at 50 µM (P. aeruginosa; 384-well format, […], read-out: AK-based Prestwick Library Screening Results, P. aeruginosa (increase in extracellular AK activity)) does the source give for `C[C@H]1CC[C@]2(NC1)O[C@H]1C[C@H]3[C@@H]4CC[C@H]5C[C@@H](O[C@@H]6O[C@H](CO)[C@H](O[C@@H]7O[C@H](CO)[C@@H](O)[C@H](O[C@@H]8OC[C@@H](O)[C@H](O)[C@H]8O)[C@H]7O[C@@H]7O[C@H](CO)[C@@H](O)[C@H](O)[C@H]7O)[C@H](O)[C@H]6O)CC[C@]5(C)[C@H]4CC[C@]3(C)[C@H]1[C@@H]2C` [Tomatine] here?
The fold induction at 50 µM was 0.8.

What about the fold induction at 50 µM ([1]; 384-well format, […], read-out: AK-based Prestwick Library Screening Results, A. baumannii (increase in extracellular AK activity)) of the same compound?
Its fold induction at 50 µM is 1.

What about the fold induction at 50 µM (E. cloacae; 384-well format, […], read-out: AK-based Prestwick Library Screening Results, E. cloacae (increase in extracellular AK activity)) of the same compound?
Its fold induction at 50 µM is 1.1.

And the fold induction at 50 µM (E. faecium; 384-well format, […], read-out: AK-based Prestwick Library Screening Results, E. faecium (increase in extracellular AK activity))?
The fold induction at 50 µM was 1.

What about the fold induction at 50 µM (K. pneumoniae; 384-well format, […], read-out: AK-based Prestwick Library Screening Results, K. pneumoniae (increase in extracellular AK activity)) of the same compound?
Its fold induction at 50 µM is 0.7.

And the fold induction at 50 µM (E. coli; 384-well format, […], read-out: AK-based Prestwick Library Screening Results, E. coli (increase in extracellular AK activity))?
Its fold induction at 50 µM is 0.9.

What about the fold induction at 50 µM ([2]; 384-well format, […], read-out: AK-based Prestwick Library Screening Results, S. aureus (increase in extracellular AK activity)) of the same compound?
The fold induction at 50 µM was 0.8.

For `CC(=O)Oc1ccccc1C(=O)Oc1ccccc1C(=O)O` [Acetylsalicylsalicylic acid], which fold induction at 50 µM (P. aeruginosa; [3]) is on record?
Its fold induction at 50 µM is 0.6.

What about the fold induction at 50 µM [1, 4] of the same compound?
Its fold induction at 50 µM is 0.7.

What about the fold induction at 50 µM (E. cloacae; [5]) of the same compound?
The fold induction at 50 µM was 0.8.

What about the fold induction at 50 µM (E. faecium; [6]) of the same compound?
The fold induction at 50 µM was 1.

And the fold induction at 50 µM (K. pneumoniae; [7])?
The fold induction at 50 µM was 0.6.

And the fold induction at 50 µM (E. coli; [8])?
Its fold induction at 50 µM is 0.6.

What about the fold induction at 50 µM [2, 9] of the same compound?
The fold induction at 50 µM was 0.7.
